How the values were obtained:
lambsquarters [1] = assay: Test Example 5: herbicidal effect by foliage application, plastic box (Table 20, symbol O); assay type: in vivo, lambsquarters (Chenopodium album); conditions: foliage application, 320 g/ha, three weeks after application
Outline: (§1)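 Foliar spray test: emulsion formulation diluted in water to a set application rate, sprayed onto 14-day-old plants raised in diluvial soil at 25° C to 30° C under glass. Both herbicidal effect and crop effect rated visually three weeks later.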

barnyard grass [2] = assay: Test Example 5: herbicidal effect by foliage application, plastic box (Table 20, symbol H); assay type: in vivo, barnyard grass (Echinochloa crus-galli); conditions: foliage application, 320 g/ha, three weeks after application
Outline: as §1

soybean [3] = assay: Test Example 4: effect on crop by soil treatment (Table 19, symbol d); assay type: in vivo; conditions: amount of applied herbicide 320 g/ha
Outline: (§2)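 Herbicidal effect was rated 3 weeks after treatment, using the scoring criteria of an earlier test. The compound, formulated as an emulsion and diluted in water to a set herbicide amount, had been sprayed uniformly on soil over freshly sown seeds. Growth took place in a greenhouse at 25° C. to 30° C.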

lambsquarters [4] = assay: Test Example 4: herbicidal effect by soil treatment (Table 19, symbol O); assay type: in vivo, lambsquarters (Chenopodium album); conditions: amount of applied herbicide 320 g/ha
Outline: as §2

barnyard grass [5] = assay: Test Example 4: herbicidal effect by soil treatment (Table 19, symbol H); assay type: in vivo, barnyard grass (Echinochloa crus-galli); conditions: amount of applied herbicide 320 g/ha
Outline: as §2

persian speedwell [6] = assay: Test Example 4: herbicidal effect by soil treatment (Table 19, symbol R); assay type: in vivo, Persian speedwell (Veronica persica); conditions: amount of applied herbicide 320 g/ha
Outline: as §2

velvetleaf [7] = assay: Test Example 4: herbicidal effect by soil treatment (Table 19, symbol M); assay type: in vivo, velvetleaf (Abutilon theophrasti); conditions: amount of applied herbicide 320 g/ha
Outline: as §2

rapeseed [8] = assay: Test Example 5: effect on crop by foliage application, plastic box (Table 20, symbol g); assay type: in vivo; conditions: 320 g/ha, three weeks after application
Outline: as §1

Italian ryegrass [9] = assay: Test Example 5: herbicidal effect by foliage application, plastic box (Table 20, symbol K); assay type: in vivo, Italian ryegrass (Lolium multiflorum); conditions: foliage application, 320 g/ha, three weeks after application
Outline: as §1

wheat [10] = assay: Test Example 4: effect on crop by soil treatment (Table 19, symbol e); assay type: in vivo; conditions: amount of applied herbicide 320 g/ha
Outline: as §2

windgrass [11] = assay: Test Example 4: herbicidal effect by soil treatment (Table 19, symbol L); assay type: in vivo, windgrass (Apera spica-venti); conditions: amount of applied herbicide 320 g/ha
Outline: as §2

green foxtail [12] = assay: Test Example 4: herbicidal effect by soil treatment (Table 19, symbol G); assay type: in vivo, green foxtail (Setaria viridis); conditions: amount of applied herbicide 320 g/ha
Outline: as §2

chickweed [13] = assay: Test Example 4: herbicidal effect by soil treatment (Table 19, symbol P); assay type: in vivo, common chickweed (Stellaria media); conditions: amount of applied herbicide 320 g/ha
Outline: as §2

wild oat [14] = assay: Test Example 4: herbicidal effect by soil treatment (Table 19, symbol I); assay type: in vivo, wild oat (Avena fatua); conditions: amount of applied herbicide 320 g/ha
Outline: as §2

blackgrass [15] = assay: Test Example 5: herbicidal effect by foliage application, plastic box (Table 20, symbol J); assay type: in vivo, blackgrass (Alopecurus myosuroides); conditions: foliage application, 320 g/ha, three weeks after application
Outline: as §1

southern crabgrass [16] = assay: Test Example 4: herbicidal effect by soil treatment (Table 19, symbol F); assay type: in vivo, southern crabgrass (Digitaria ciliaris); conditions: amount of applied herbicide 320 g/ha
Outline: as §2

green foxtail [17] = assay: Test Example 5: herbicidal effect by foliage application, plastic box (Table 20, symbol G); assay type: in vivo, green foxtail (Setaria viridis); conditions: foliage application, 320 g/ha, three weeks after application
Outline: as §1

velvetleaf [18] = assay: Test Example 5: herbicidal effect by foliage application, plastic box (Table 20, symbol M); assay type: in vivo, velvetleaf (Abutilon theophrasti); conditions: foliage application, 320 g/ha, three weeks after application
Outline: as §1

soybean [19] = assay: Test Example 5: effect on crop by foliage application, plastic box (Table 20, symbol d); assay type: in vivo; conditions: 320 g/ha, three weeks after application
From the text: (§3) [Test Example 5] Herbicidal Effect Test by Foliage Application
(§4) Sterilized diluvial soil was placed in a plastic box having a length of 21 cm, a width of 13 cm, and a depth of 7 cm. The seeds of each of southern crabgrass, green foxtail, barnyard grass, wild oat, blackgrass, Italian ryegrass, windgrass, velvetleaf, redroot pigweed, lambsquarters, chickweed, false cleavers, persian speedwell, corn, soybean, rice, wheat, beet, and rapeseed were sowed in a spot-like manner and covered with the soil having a thickness of about 1.5 cm. Thereafter, the plants were grown in a greenhouse at 25° C. to 30° C. After 14-day growth of the plants, the emulsion agent of the compound of the present invention prepared according to Formulation Example 2 was diluted with water so as to achieve a predetermined herbicide amount, and the diluted emulsion agent was uniformly applied to a foliage part with a small-sized spray. Three weeks after the herbicide application, the effect of the herbicide on each plant was evaluated according to the criteria of Test Example 1.

rapeseed [20] = assay: Test Example 4: effect on crop by soil treatment (Table 19, symbol g); assay type: in vivo; conditions: amount of applied herbicide 320 g/ha
Outline: as §2

rice flat sedge = assay: Test Example 3: herbicidal effect by foliage application, Wagner pot (Table 18, symbol E); assay type: in vivo, rice flat sedge (Cyperus iria); conditions: 320 g/ha
Outline: (§5)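 Plants were sown in alluvial soil held under 0.1–0.5 cm standing water and grown 14 days in a greenhouse at 25–30 °C. An emulsifiable formulation, water-diluted to the set dose, was then sprayed onto the foliage, and effects were scored three weeks later using previously defined criteria.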

wheat [21] = assay: Test Example 5: effect on crop by foliage application, plastic box (Table 20, symbol e); assay type: in vivo; conditions: 320 g/ha, three weeks after application
From the text: as §3, §4

directly sowed rice = assay: Test Example 3: effect on crop by foliage application, Wagner pot (Table 18, symbol b); assay type: in vivo; conditions: 320 g/ha
Outline: as §5

corn [22] = assay: Test Example 5: effect on crop by foliage application, plastic box (Table 20, symbol c); assay type: in vivo; conditions: 320 g/ha, three weeks after application
Outline: as §1

windgrass [23] = assay: Test Example 5: herbicidal effect by foliage application, plastic box (Table 20, symbol L); assay type: in vivo, windgrass (Apera spica-venti); conditions: foliage application, 320 g/ha, three weeks after application
Outline: as §1

persian speedwell [24] = assay: Test Example 5: herbicidal effect by foliage application, plastic box (Table 20, symbol R); assay type: in vivo, Persian speedwell (Veronica persica); conditions: foliage application, 320 g/ha, three weeks after application
Outline: as §1

southern crabgrass [25] = assay: Test Example 5: herbicidal effect by foliage application, plastic box (Table 20, symbol F); assay type: in vivo, southern crabgrass (Digitaria ciliaris); conditions: foliage application, 320 g/ha, three weeks after application
Outline: as §1

beet [26] = assay: Test Example 4: effect on crop by soil treatment (Table 19, symbol f); assay type: in vivo; conditions: amount of applied herbicide 320 g/ha
Outline: as §2

redroot pigweed [27] = assay: Test Example 4: herbicidal effect by soil treatment (Table 19, symbol N); assay type: in vivo, redroot pigweed (Amaranthus retroflexus); conditions: amount of applied herbicide 320 g/ha
Outline: as §2

corn [28] = assay: Test Example 4: effect on crop by soil treatment (Table 19, symbol c); assay type: in vivo; conditions: amount of applied herbicide 320 g/ha
Outline: as §2

barnyard grass [29] = assay: Test Example 3: herbicidal effect by foliage application, Wagner pot (Table 18, symbol H); assay type: in vivo, barnyard grass (Echinochloa crus-galli); conditions: 320 g/ha
Outline: as §5

wild oat [30] = assay: Test Example 5: herbicidal effect by foliage application, plastic box (Table 20, symbol I); assay type: in vivo, wild oat (Avena fatua); conditions: foliage application, 320 g/ha, three weeks after application
Outline: as §1

chickweed [31] = assay: Test Example 5: herbicidal effect by foliage application, plastic box (Table 20, symbol P); assay type: in vivo, common chickweed (Stellaria media); conditions: foliage application, 320 g/ha, three weeks after application
Outline: as §1

Italian ryegrass [32] = assay: Test Example 4: herbicidal effect by soil treatment (Table 19, symbol K); assay type: in vivo, Italian ryegrass (Lolium multiflorum); conditions: amount of applied herbicide 320 g/ha
Outline: as §2

Chinese sprangletop = assay: Test Example 3: herbicidal effect by foliage application, Wagner pot (Table 18, symbol D); assay type: in vivo, chinese sprangletop (Leptochloa chinensis); conditions: 320 g/ha
Outline: as §5

blackgrass [33] = assay: Test Example 4: herbicidal effect by soil treatment (Table 19, symbol J); assay type: in vivo, blackgrass (Alopecurus myosuroides); conditions: amount of applied herbicide 320 g/ha
Outline: as §2

beet [34] = assay: Test Example 5: effect on crop by foliage application, plastic box (Table 20, symbol f); assay type: in vivo; conditions: 320 g/ha, three weeks after application
From the text: as §3, §4

redroot pigweed [35] = assay: Test Example 5: herbicidal effect by foliage application, plastic box (Table 20, symbol N); assay type: in vivo, redroot pigweed (Amaranthus retroflexus); conditions: foliage application, 320 g/ha, three weeks after application
Outline: as §1

For `COc1ccc2c(-c3c(O)c(N)nn(C)c3=O)c(-c3ccccc3OC)sc2c1` [Compound No. 3-087, 6-amino-5-hydroxy-4-(6-methoxy-2-(2-methoxyphenyl)benzo[b]thiophen-3-yl)-2-methyl pyridazin-3(2H)-one], the “O: lambsquarters, herbicidal effect grade” value (lambsquarters [1]) was 0 (Herbicidal rate of 5% or less (almost no effect)), the “H: barnyard grass, herbicidal effect grade” value (barnyard grass [2]) was 3 (Herbicidal rate of 40% or more and less than 70%) and the “d: soybean, effect on crop grade” value (soybean [3]) was 0 (Herbicidal rate of 5% or less (almost no effect)). For the same compound, the “O: lambsquarters, herbicidal effect grade” value (lambsquarters [4]) was 0 (Herbicidal rate of 5% or less (almost no effect)), the “H: barnyard grass, herbicidal effect grade” value (barnyard grass [5]) was 0 (Herbicidal rate of 5% or less (almost no effect)) and the “R: persian speedwell, herbicidal effect grade” value (persian speedwell [6]) was 3 (Herbicidal rate of 40% or more and less than 70%). For the same compound, the “M: velvetleaf, herbicidal effect grade” value (velvetleaf [7]) was 0 (Herbicidal rate of 5% or less (almost no effect)), the melting point was 286 to 288 °C and the “g: rapeseed, effect on crop grade” value (rapeseed [8]) was 4 (Herbicidal rate of 70% or more and less than 90%). For the same compound, the “K: Italian ryegrass, herbicidal effect grade” value (Italian ryegrass [9]) was 1 (Herbicidal rate of 5% or more and less than 20%), the “e: wheat, effect on crop grade” value (wheat [10]) was 0 (Herbicidal rate of 5% or less (almost no effect)) and the “L: windgrass, herbicidal effect grade” value (windgrass [11]) was 0 (Herbicidal rate of 5% or less (almost no effect)). For the same compound, the “G: green foxtail, herbicidal effect grade” value (green foxtail [12]) was 0 (Herbicidal rate of 5% or less (almost no effect)), the “P: chickweed, herbicidal effect grade” value (chickweed [13]) was 3 (Herbicidal rate of 40% or more and less than 70%) and the “I: wild oat, herbicidal effect grade” value (wild oat [14]) was 0 (Herbicidal rate of 5% or less (almost no effect)). For the same compound, the “J: blackgrass, herbicidal effect grade” value (blackgrass [15]) was 4 (Herbicidal rate of 70% or more and less than 90%), the “F: southern crabgrass, herbicidal effect grade” value (southern crabgrass [16]) was 0 (Herbicidal rate of 5% or less (almost no effect)) and the “G: green foxtail, herbicidal effect grade” value (green foxtail [17]) was 0 (Herbicidal rate of 5% or less (almost no effect)). For the same compound, the “M: velvetleaf, herbicidal effect grade” value (velvetleaf [18]) was 0 (Herbicidal rate of 5% or less (almost no effect)), the “d: soybean, effect on crop grade” value (soybean [19]) was 0 (Herbicidal rate of 5% or less (almost no effect)) and the “g: rapeseed, effect on crop grade” value (rapeseed [20]) was 0 (Herbicidal rate of 5% or less (almost no effect)). The “herbicidal effect on rice flat sedge (E)” value (rice flat sedge) was 3 (Herbicidal rate of 40% or more and less than 70%), the “e: wheat, effect on crop grade” value (wheat [21]) was 0 (Herbicidal rate of 5% or less (almost no effect)) and the “effect on directly sowed rice (b)” value (directly sowed rice) was 1 (Herbicidal rate of 5% or more and less than 20%). For the same compound, the “c: corn, effect on crop grade” value (corn [22]) was 0 (Herbicidal rate of 5% or less (almost no effect)), the “L: windgrass, herbicidal effect grade” value (windgrass [23]) was 5 (Herbicidal rate of 90% or more (almost completely withered)) and the “R: persian speedwell, herbicidal effect grade” value (persian speedwell [24]) was 4 (Herbicidal rate of 70% or more and less than 90%). The “F: southern crabgrass, herbicidal effect grade” value (southern crabgrass [25]) was 0 (Herbicidal rate of 5% or less (almost no effect)), the “f: beet, effect on crop grade” value (beet [26]) was 0 (Herbicidal rate of 5% or less (almost no effect)) and the “N: redroot pigweed, herbicidal effect grade” value (redroot pigweed [27]) was 0 (Herbicidal rate of 5% or less (almost no effect)). The “c: corn, effect on crop grade” value (corn [28]) was 0 (Herbicidal rate of 5% or less (almost no effect)), the “herbicidal effect on barnyard grass (H)” value (barnyard grass [29]) was 4 (Herbicidal rate of 70% or more and less than 90%) and the “I: wild oat, herbicidal effect grade” value (wild oat [30]) was 0 (Herbicidal rate of 5% or less (almost no effect)). For the same compound, the “P: chickweed, herbicidal effect grade” value (chickweed [31]) was 5 (Herbicidal rate of 90% or more (almost completely withered)), the “K: Italian ryegrass, herbicidal effect grade” value (Italian ryegrass [32]) was 0 (Herbicidal rate of 5% or less (almost no effect)) and the “herbicidal effect on Chinese sprangletop (D)” value (Chinese sprangletop) was 0 (Herbicidal rate of 5% or less (almost no effect)). For the same compound, the “J: blackgrass, herbicidal effect grade” value (blackgrass [33]) was 0 (Herbicidal rate of 5% or less (almost no effect)), the “f: beet, effect on crop grade” value (beet [34]) was 4 (Herbicidal rate of 70% or more and less than 90%) and the “N: redroot pigweed, herbicidal effect grade” value (redroot pigweed [35]) was 1 (Herbicidal rate of 5% or more and less than 20%).

Source: patent US20230085307A1, “PYRIDAZINONE COMPOUND AND HERBICIDE” (NISSAN CHEMICAL CORPORATION, priority 2019, published 2023)
